Results taken from paper PMC11413682 (Acta Pharmaceutica Sinica. B, 2024).
Read-outs that look alike come from different tables or passages of the source. Residues, ends and D or L forms follow the SMILES beside them. No end group written: not given here.

Biological target: T1, CUL2^ZYG11B (residues 490–728) (Homo sapiens, UniProt Q9C0D3)
T1 construct: PCR was used to amplify CUL2^ZYG11B (residues 490–728); 6×His-SUMO (TEV-cleavable) (N, cleaved yes); made in house; host or cells: E. coli
Assay: ITC binding of ORF10 NTE synthetic peptides to CUL2^ZYG11B

[1] = figure panels, […], repeated 3 times, read-out: Kd

T1 sequence (Q9C0D3 490-728): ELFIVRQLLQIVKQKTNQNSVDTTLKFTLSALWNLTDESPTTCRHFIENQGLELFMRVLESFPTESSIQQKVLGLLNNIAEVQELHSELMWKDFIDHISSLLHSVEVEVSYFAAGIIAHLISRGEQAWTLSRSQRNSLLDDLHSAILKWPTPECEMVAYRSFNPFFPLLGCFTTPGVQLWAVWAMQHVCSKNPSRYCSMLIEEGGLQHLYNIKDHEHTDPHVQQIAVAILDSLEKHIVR

CC[C@H](C)[C@H](NC(=O)[C@H](Cc1ccc(O)cc1)NC(=O)CN)C(=O)O [SARS-2 ORF10 N3] (H-Gly-Tyr-Ile-OH)
Kd [1]: 14.5 µM

SYINV [SARS-2 ORF10 N5-G1S]
Kd: 13.2 µM

GAINV [SARS-2 ORF10 N5-Y2A]
Kd [1]: 25.2 µM

NCC(=O)N[C@@H](Cc1ccc(O)cc1)C(=O)O [SARS-2 ORF10 N2] (H-Gly-Tyr-OH; N-terminus and C-terminus assumed)
Kd: > 200 µM
binding to CUL2^ZYG11B (in words) (ITC): did not bind
N, stoichiometry (Table S4, ITC): 5.05
ΔS, entropy variation (Table S4, ITC): 6.52 cal/mole/deg

GFWCR [SNX11-degron-5, reference compound]
Kd (Table S4, ITC, MicroCal iTC200, peptide 0.5–1 mmol/L in syringe, protein 0.03 mmol/L in cell, 18 x 2 μL injections, repeated 3 times, Kd calculated as 1/Ka, read-out: Kd): 0.4 µM

GPINV [SARS-2 ORF10 N5-Y2P, altered peptide derived from SARS-CoV-2 ORF10 N5, Y2P]
binding to CUL2^ZYG11B (in words) (ITC): disrupted binding completely

CC[C@H](C)[C@H](NC(=O)[C@H](Cc1ccc(O)cc1)NC(=O)CN)C(=O)N[C@@H](CC(N)=O)C(=O)O [SARS-2 ORF10 N4] (H-GYIN-OH)
Kd [1]: 5.18 µM
